Assay results reported in ChEMBL document CHEMBL1201862, “PubChem BioAssay data set” (2004).
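Each compound was tested at five concentrations against cells in 96-well plates for 48 hours. GI50: concentration for 50% inhibition of growth.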 Calls of active or inactive are those of the source. Rule as the data show it: active = GI50 up to about 1.1 µM and inactive = higher.

Tests used:
Experiment in all cases: inhibition of tumour cell growth, NCI panel, 48 h
[1] = tested on: MCF7
[2] = tested on: OVCAR-4
[3] = tested on: NCI-H23
[4] = tested on: UO-31
[5] = tested on: CAKI-1
[6] = tested on: SNB-75
[7] = tested on: UACC-257
[8] = tested on: HCT-116
[9] = tested on: MOLT-4
[10] = tested on: OVCAR-5
[11] = tested on: IGROV-1
[12] = tested on: TK-10
[13] = tested on: LOX IMVI
[14] = tested on: COLO 205
[15] = tested on: SF-268
[16] = tested on: NCI/ADR-RES
[17] = tested on: SF-539
[18] = tested on: OVCAR-3
[19] = tested on: NCI-H522
[20] = tested on: NCI-H226
[21] = tested on: DU-145
[22] = tested on: NCI-H460
[23] = tested on: SF-295
[24] = tested on: SN12C
[25] = tested on: HOP-92
[26] = tested on: SNB-19
[27] = tested on: SW-620
[28] = tested on: SR
[29] = tested on: RPMI-8226
[30] = tested on: 786-0
[31] = tested on: SK-MEL-2
[32] = tested on: SK-OV-3
[33] = tested on: ACHN
[34] = tested on: HT-29
[35] = tested on: HOP-62
[36] = tested on: Hs-578T
[37] = tested on: SK-MEL-5
[38] = tested on: U-251
[39] = tested on: MDA-N
[40] = tested on: PC-3
[41] = tested on: HCT-15
[42] = tested on: RXF 393
[43] = tested on: MDA-MB-435
[44] = tested on: KM12
[45] = tested on: M14
[46] = tested on: SK-MEL-28
[47] = tested on: A549
[48] = tested on: EKVX
[49] = tested on: HL-60
[50] = tested on: T47D
[51] = tested on: Malme-3M
[52] = tested on: BT-549
[53] = tested on: OVCAR-8
[54] = tested on: A498
[55] = tested on: UACC-62
[56] = tested on: MDA-MB-231
[57] = tested on: CCRF-CEM
[58] = tested on: K562
[59] = tested on: HCC 2998

Compound: COc1cc(CC2C(=O)OCC2Cc2ccc(OC)c(OC)c2)ccc1O (stereo not drawn)
- GI50 [1]: > 100 µM (inactive)
- GI50 [2]: > 100 µM (inactive)
- GI50 [3]: 10.9 µM (inactive)
- GI50 [4]: > 100 µM (inactive)
- GI50 [5]: > 100 µM (inactive)
- GI50 [6]: > 60.5 µM (inactive)
- GI50 [7]: > 50.6 µM (inactive)
- GI50 [8]: > 100 µM (inactive)
- GI50 [9]: 4.76 µM (inactive)
- GI50 [10]: > 100 µM (inactive)
- GI50 [11]: > 75.3 µM (inactive)
- GI50 [12]: > 100 µM (inactive)
- GI50 [13]: 30.8 µM (inactive)
- GI50 [14]: > 100 µM (inactive)
- GI50 [15]: > 100 µM (inactive)
- GI50 [16]: 43.6 µM (inactive)
- GI50 [17]: > 100 µM (inactive)
- GI50 [18]: > 91.8 µM (inactive)
- GI50 [19]: > 100 µM (inactive)
- GI50 [20]: > 100 µM (inactive)
- GI50 [21]: > 100 µM (inactive)
- GI50 [22]: > 100 µM (inactive)
- GI50 [23]: 8.85 µM (inactive)
- GI50 [24]: > 100 µM (inactive)
- GI50 [25]: 29.5 µM (inactive)
- GI50 [26]: > 100 µM (inactive)
- GI50 [27]: > 100 µM (inactive)
- GI50 [28]: > 100 µM (inactive)
- GI50 [29]: > 100 µM (inactive)
- GI50 [30]: > 100 µM (inactive)
- GI50 [31]: > 100 µM (inactive)
- GI50 [32]: > 100 µM (inactive)
- GI50 [33]: > 88.9 µM (inactive)
- GI50 [34]: > 100 µM (inactive)
- GI50 [35]: > 100 µM (inactive)
- GI50 [36]: > 100 µM (inactive)
- GI50 [37]: 4.42 µM (inactive)
- GI50 [38]: > 100 µM (inactive)
- GI50 [39]: > 100 µM (inactive)
- GI50 [40]: 99.1 µM (inactive)
- GI50 [41]: > 100 µM
- GI50 [42]: > 100 µM (inactive)
- GI50 [43]: > 100 µM (inactive)
- GI50 [44]: > 100 µM (inactive)
- GI50 [45]: > 100 µM (inactive)
- GI50 [46]: > 100 µM (inactive)
- GI50 [47]: > 71.8 µM (inactive)
- GI50 [48]: > 27.8 µM (inactive)
- GI50 [49]: > 100 µM (inactive)
- GI50 [50]: 28.6 µM (inactive)
- GI50 [51]: > 100 µM (inactive)
- GI50 [52]: > 55.2 µM (inactive)
- GI50 [53]: > 100 µM (inactive)
- GI50 [54]: > 100 µM (inactive)
- GI50 [55]: > 100 µM (inactive)
- GI50 [56]: 74.3 µM (inactive)

Compound: Cc1cc2cc3c(C)cc(=O)oc3c(C)c2o1 [TRIOXSALEN]
- GI50 [1]: > 100 µM (inactive)
- GI50 [2]: > 100 µM (inactive)
- GI50 [3]: > 100 µM (inactive)
- GI50 [4]: > 100 µM (inactive)
- GI50 [5]: > 100 µM (inactive)
- GI50 [6]: > 100 µM (inactive)
- GI50 [7]: > 100 µM (inactive)
- GI50 [8]: > 100 µM (inactive)
- GI50 [9]: > 100 µM (inactive)
- GI50 [10]: > 100 µM (inactive)
- GI50 [11]: > 100 µM (inactive)
- GI50 [13]: > 100 µM (inactive)
- GI50 [14]: > 100 µM (inactive)
- GI50 [15]: > 100 µM (inactive)
- GI50 [16]: > 100 µM (inactive)
- GI50 [17]: > 100 µM (inactive)
- GI50 [18]: > 100 µM (inactive)
- GI50 [19]: > 100 µM (inactive)
- GI50 [20]: > 100 µM (inactive)
- GI50 [21]: > 100 µM (inactive)
- GI50 [22]: > 100 µM (inactive)
- GI50 [23]: > 100 µM (inactive)
- GI50 [24]: > 100 µM (inactive)
- GI50 [25]: > 100 µM (inactive)
- GI50 [26]: > 100 µM (inactive)
- GI50 [27]: > 100 µM (inactive)
- GI50 [28]: > 100 µM (inactive)
- GI50 [29]: > 100 µM (inactive)
- GI50 [30]: > 100 µM (inactive)
- GI50 [31]: > 100 µM (inactive)
- GI50 [33]: > 100 µM (inactive)
- GI50 [34]: > 100 µM (inactive)
- GI50 [35]: > 100 µM (inactive)
- GI50 [36]: > 100 µM (inactive)
- GI50 [37]: > 100 µM (inactive)
- GI50 [38]: > 100 µM (inactive)
- GI50 [39]: > 100 µM (inactive)
- GI50 [40]: > 100 µM (inactive)
- GI50 [41]: > 100 µM
- GI50 [57]: > 100 µM (inactive)
- GI50 [42]: > 100 µM (inactive)
- GI50 [58]: > 100 µM (inactive)
- GI50 [43]: > 100 µM (inactive)
- GI50 [44]: > 100 µM (inactive)
- GI50 [45]: > 100 µM (inactive)
- GI50 [46]: > 100 µM (inactive)
- GI50 [47]: > 100 µM (inactive)
- GI50 [48]: 90.6 µM (inactive)
- GI50 [49]: > 100 µM (inactive)
- GI50 [50]: > 100 µM (inactive)
- GI50 [51]: > 100 µM (inactive)
- GI50 [52]: > 100 µM (inactive)
- GI50 [59]: > 100 µM (inactive)
- GI50 [53]: > 100 µM (inactive)
- GI50 [54]: > 100 µM (inactive)
- GI50 [55]: > 100 µM (inactive)
- GI50 [56]: > 100 µM (inactive)
